Numbers after ± are expanded uncertainties.
Test: xn = mol fraction of the nth substance listed
Conditions: for surface tension liquid-gas: Maximal bubble pressure; for mass density: 100 kPa, Liquid, Vibrating tube method

CCn1cc[n+](CCOC)c1.O=S(=O)([O-])C(F)(F)F + CC(C)O
Conditions	mass density [kg/m3]	surface tension liquid-gas [mN/m]
288.15 K, x1 = 0.0997	929.227 ± 2.7	21.4 ± 1.5
288.15 K, x1 = 0.2004	1030.66 ± 2.2	22.3 ± 1.5
288.15 K, x1 = 0.3004	1105.98 ± 1.9	23.8 ± 1.5
288.15 K, x1 = 0.4003	1163.83 ± 1.7	25.5 ± 1.5
288.15 K, x1 = 0.5004	1210.18 ± 1.6	27.2 ± 1.5
288.15 K, x1 = 0.6008	1248.32 ± 1.5	28.9 ± 1.5
288.15 K, x1 = 0.7	1279.5 ± 1.5	30.8 ± 1.5
288.15 K, x1 = 0.7998	1306.12 ± 1.4	32.8 ± 1.5
288.15 K, x1 = 0.9003	1329.28 ± 1.4	34.5 ± 1.5
288.15 K, x1 = 1	1348.94 ± 1.4	36.3 ± 1.5
293.15 K, x1 = 0.0997	925.015 ± 2.7	21.1 ± 1.5
293.15 K, x1 = 0.2004	1026.4 ± 2.2	22 ± 1.5
293.15 K, x1 = 0.3004	1101.69 ± 1.9	23.6 ± 1.5
293.15 K, x1 = 0.4003	1159.55 ± 1.7	25.3 ± 1.5
293.15 K, x1 = 0.5004	1205.9 ± 1.6	27 ± 1.5
293.15 K, x1 = 0.6008	1244.05 ± 1.5	28.6 ± 1.5
293.15 K, x1 = 0.7	1275.23 ± 1.5	30.6 ± 1.5
293.15 K, x1 = 0.7998	1301.86 ± 1.4	32.6 ± 1.5
293.15 K, x1 = 0.9003	1325.01 ± 1.4	34.3 ± 1.5
293.15 K, x1 = 1	1344.66 ± 1.4	36.1 ± 1.5
298.15 K, x1 = 0.0997	920.772 ± 2.7	20.7 ± 1.5
298.15 K, x1 = 0.2004	1022.12 ± 2.2	21.7 ± 1.5
298.15 K, x1 = 0.3004	1097.4 ± 1.9	23.3 ± 1.5
298.15 K, x1 = 0.4003	1155.27 ± 1.7	25 ± 1.5
298.15 K, x1 = 0.5004	1201.63 ± 1.6	26.7 ± 1.5
298.15 K, x1 = 0.6008	1239.8 ± 1.5	28.4 ± 1.5
298.15 K, x1 = 0.7	1270.99 ± 1.5	30.4 ± 1.5
298.15 K, x1 = 0.7998	1297.61 ± 1.4	32.3 ± 1.5
298.15 K, x1 = 0.9003	1320.76 ± 1.4	34.1 ± 1.5
298.15 K, x1 = 1	1340.41 ± 1.4	35.8 ± 1.5
303.15 K, x1 = 0.0997	916.497 ± 2.7	20.3 ± 1.5
303.15 K, x1 = 0.2004	1017.82 ± 2.2	21.5 ± 1.5
303.15 K, x1 = 0.3004	1093.11 ± 1.9	23.1 ± 1.5
303.15 K, x1 = 0.4003	1150.99 ± 1.7	24.8 ± 1.5
303.15 K, x1 = 0.5004	1197.38 ± 1.6	26.5 ± 1.5
303.15 K, x1 = 0.6008	1235.56 ± 1.5	28.2 ± 1.5
303.15 K, x1 = 0.7	1266.76 ± 1.5	30.1 ± 1.5
303.15 K, x1 = 0.7998	1293.38 ± 1.4	32.1 ± 1.5
303.15 K, x1 = 0.9003	1316.53 ± 1.4	33.9 ± 1.5
303.15 K, x1 = 1	1336.17 ± 1.4	35.5 ± 1.5
308.15 K, x1 = 0.0997	912.188 ± 2.7	20 ± 1.5
308.15 K, x1 = 0.2004	1013.52 ± 2.2	21.2 ± 1.5
308.15 K, x1 = 0.3004	1088.82 ± 1.9	22.8 ± 1.5
308.15 K, x1 = 0.4003	1146.73 ± 1.7	24.6 ± 1.5
308.15 K, x1 = 0.5004	1193.13 ± 1.6	26.3 ± 1.5
308.15 K, x1 = 0.6008	1231.33 ± 1.5	28 ± 1.5
308.15 K, x1 = 0.7	1262.54 ± 1.4	29.8 ± 1.5
308.15 K, x1 = 0.7998	1289.17 ± 1.4	31.9 ± 1.5
308.15 K, x1 = 0.9003	1312.32 ± 1.4	33.6 ± 1.5
308.15 K, x1 = 1	1331.96 ± 1.4	35.3 ± 1.5
313.15 K, x1 = 0.0997	907.842 ± 2.7	19.7 ± 1.5
313.15 K, x1 = 0.2004	1009.19 ± 2.2	21 ± 1.5
313.15 K, x1 = 0.3004	1084.53 ± 1.9	22.6 ± 1.5
313.15 K, x1 = 0.4003	1142.47 ± 1.7	24.4 ± 1.5
313.15 K, x1 = 0.5004	1188.9 ± 1.6	26.1 ± 1.5
313.15 K, x1 = 0.6008	1227.11 ± 1.5	27.8 ± 1.5
313.15 K, x1 = 0.7	1258.34 ± 1.4	29.6 ± 1.5
313.15 K, x1 = 0.7998	1284.98 ± 1.4	31.7 ± 1.5
313.15 K, x1 = 0.9003	1308.13 ± 1.4	33.3 ± 1.5
313.15 K, x1 = 1	1327.77 ± 1.4	35.1 ± 1.5
318.15 K, x1 = 0.0997	903.442 ± 2.7	19.4 ± 1.5
318.15 K, x1 = 0.2004	1004.85 ± 2.2	20.7 ± 1.5
318.15 K, x1 = 0.3004	1080.23 ± 1.9	22.4 ± 1.5
318.15 K, x1 = 0.4003	1138.22 ± 1.7	24.2 ± 1.5
318.15 K, x1 = 0.5004	1184.68 ± 1.6	25.9 ± 1.5
318.15 K, x1 = 0.6008	1222.91 ± 1.5	27.6 ± 1.5
318.15 K, x1 = 0.7	1254.16 ± 1.4	29.4 ± 1.5
318.15 K, x1 = 0.7998	1280.8 ± 1.4	31.5 ± 1.5
318.15 K, x1 = 0.9003	1303.96 ± 1.4	33.1 ± 1.5
318.15 K, x1 = 1	1323.6 ± 1.4	34.9 ± 1.5

CCn1cc[n+](CCOC)c1.O=S(=O)([O-])C(F)(F)F + CCCO
Conditions	mass density [kg/m3]	surface tension liquid-gas [mN/m]
288.15 K, x1 = 0.0987	944.376 ± 2.7	23.4 ± 1.5
288.15 K, x1 = 0.1999	1043.54 ± 2.1	24.2 ± 1.5
288.15 K, x1 = 0.2982	1114.64 ± 1.8	25 ± 1.5
288.15 K, x1 = 0.3994	1171.5 ± 1.7	26.2 ± 1.5
288.15 K, x1 = 0.499	1215.82 ± 1.5	27.7 ± 1.5
288.15 K, x1 = 0.5993	1252.38 ± 1.5	29.5 ± 1.5
288.15 K, x1 = 0.6979	1282.09 ± 1.4	31.5 ± 1.5
288.15 K, x1 = 0.8009	1308.48 ± 1.4	33 ± 1.5
288.15 K, x1 = 0.8992	1329.95 ± 1.4	34.8 ± 1.5
288.15 K, x1 = 1	1348.94 ± 1.4	36.3 ± 1.5
293.15 K, x1 = 0.0987	940.25 ± 2.7	23.1 ± 1.5
293.15 K, x1 = 0.1999	1039.33 ± 2.1	23.8 ± 1.5
293.15 K, x1 = 0.2982	1110.4 ± 1.8	24.7 ± 1.5
293.15 K, x1 = 0.3994	1167.24 ± 1.7	25.9 ± 1.5
293.15 K, x1 = 0.499	1211.56 ± 1.5	27.4 ± 1.5
293.15 K, x1 = 0.5993	1248.12 ± 1.5	29.2 ± 1.5
293.15 K, x1 = 0.6979	1277.83 ± 1.4	31.3 ± 1.5
293.15 K, x1 = 0.8009	1304.21 ± 1.4	32.7 ± 1.5
293.15 K, x1 = 0.8992	1325.68 ± 1.4	34.6 ± 1.5
293.15 K, x1 = 1	1344.66 ± 1.4	36.1 ± 1.5
298.15 K, x1 = 0.0987	936.122 ± 2.7	22.7 ± 1.5
298.15 K, x1 = 0.1999	1035.12 ± 2.1	23.5 ± 1.5
298.15 K, x1 = 0.2982	1106.16 ± 1.8	24.3 ± 1.5
298.15 K, x1 = 0.3994	1162.99 ± 1.7	25.5 ± 1.5
298.15 K, x1 = 0.499	1207.32 ± 1.5	27.1 ± 1.5
298.15 K, x1 = 0.5993	1243.87 ± 1.5	28.9 ± 1.5
298.15 K, x1 = 0.6979	1273.58 ± 1.4	31 ± 1.5
298.15 K, x1 = 0.8009	1299.97 ± 1.4	32.5 ± 1.5
298.15 K, x1 = 0.8992	1321.43 ± 1.4	34.4 ± 1.5
298.15 K, x1 = 1	1340.41 ± 1.4	35.8 ± 1.5
303.15 K, x1 = 0.0987	931.974 ± 2.7	22.4 ± 1.5
303.15 K, x1 = 0.1999	1030.91 ± 2.1	23.1 ± 1.5
303.15 K, x1 = 0.2982	1101.93 ± 1.8	24 ± 1.5
303.15 K, x1 = 0.3994	1158.75 ± 1.7	25.1 ± 1.5
303.15 K, x1 = 0.499	1203.08 ± 1.5	26.7 ± 1.5
303.15 K, x1 = 0.5993	1239.64 ± 1.5	28.6 ± 1.5
303.15 K, x1 = 0.6979	1269.36 ± 1.4	30.7 ± 1.5
303.15 K, x1 = 0.8009	1295.75 ± 1.4	32.2 ± 1.5
303.15 K, x1 = 0.8992	1317.21 ± 1.4	34.2 ± 1.5
303.15 K, x1 = 1	1336.17 ± 1.4	35.5 ± 1.5
308.15 K, x1 = 0.0987	927.821 ± 2.7	22.1 ± 1.5
308.15 K, x1 = 0.1999	1026.69 ± 2.1	22.7 ± 1.5
308.15 K, x1 = 0.2982	1097.7 ± 1.8	23.6 ± 1.5
308.15 K, x1 = 0.3994	1154.52 ± 1.7	24.8 ± 1.5
308.15 K, x1 = 0.499	1198.86 ± 1.5	26.4 ± 1.5
308.15 K, x1 = 0.5993	1235.43 ± 1.5	28.3 ± 1.5
308.15 K, x1 = 0.6979	1265.15 ± 1.4	30.4 ± 1.5
308.15 K, x1 = 0.8009	1291.54 ± 1.4	32 ± 1.5
308.15 K, x1 = 0.8992	1313 ± 1.4	33.9 ± 1.5
308.15 K, x1 = 1	1331.96 ± 1.4	35.3 ± 1.5
313.15 K, x1 = 0.0987	923.647 ± 2.7	21.7 ± 1.5
313.15 K, x1 = 0.1999	1022.48 ± 2.1	22.4 ± 1.5
313.15 K, x1 = 0.2982	1093.47 ± 1.8	23.2 ± 1.5
313.15 K, x1 = 0.3994	1150.29 ± 1.7	24.5 ± 1.5
313.15 K, x1 = 0.499	1194.66 ± 1.5	26.1 ± 1.5
313.15 K, x1 = 0.5993	1231.23 ± 1.5	28 ± 1.5
313.15 K, x1 = 0.6979	1260.96 ± 1.4	30 ± 1.5
313.15 K, x1 = 0.8009	1287.35 ± 1.4	31.7 ± 1.5
313.15 K, x1 = 0.8992	1308.81 ± 1.4	33.7 ± 1.5
313.15 K, x1 = 1	1327.77 ± 1.4	35.1 ± 1.5
318.15 K, x1 = 0.0987	919.45 ± 2.7	21.3 ± 1.5
318.15 K, x1 = 0.1999	1018.44 ± 2.1	22.1 ± 1.5
318.15 K, x1 = 0.2982	1089.25 ± 1.8	22.8 ± 1.5
318.15 K, x1 = 0.3994	1146.1 ± 1.7	24.2 ± 1.5
318.15 K, x1 = 0.499	1190.46 ± 1.5	25.8 ± 1.5
318.15 K, x1 = 0.5993	1227.04 ± 1.5	27.8 ± 1.5
318.15 K, x1 = 0.6979	1256.78 ± 1.4	29.7 ± 1.5
318.15 K, x1 = 0.8009	1283.18 ± 1.4	31.4 ± 1.5
318.15 K, x1 = 0.8992	1304.63 ± 1.4	33.5 ± 1.5
318.15 K, x1 = 1	1323.6 ± 1.4	34.9 ± 1.5
